Experimental data reported in patent US20210323976A1, “HETEROARYL COMPOUNDS FOR KINASE INHIBITION” (ARIAD Pharmaceuticals, Inc., priority 2015, published 2021).

Columns and labels:
Type in all cases: cell-based
[1] = biological target: T1, EGFR exon 20 ASV insertion (V769_D770insASV) (Homo sapiens, UniProt P00533, INS769ASV); experiment: Ba/F3-EGFR-Exon20-ASV cell anti-proliferation assay (MTS, CellTiter 96 AQueous One); conditions: Ba/F3-EGFR-Exon20-ASV cells, 72 h, MTS signal
T1 construct: expressed in transfected cells; host or cells: Ba/F3 (murine pro-B) cells, lentiviral transduction with pLVX-IRES puro
Excerpt: A compound's ability in selectively inhibiting EGFR exon 20 insertion mutations can be assessed using Ba/F3 cells, a murine pro-B cell line, which have been transduced with EGFR exon 20 insertions. An expression vector, pLVX-IRES puro (Clontech) coding for human EGFR exon 20 insertions NPG (H773_V774insNPG) or ASV (V769_D770insASV), was transfected into HEK293 cells by the Trans-Lentiviral ORF Packaging System (Thermo Scientific), to produce virus encoding EGFR exon 20 insertions. Ba/F3 (DSMZ) cells maintained in RPM11640 medium supplemented with 10% fetal bovine serum, 200 pM L-glutamine/200 µg/mL penicillin/200 µg/mL streptomycin (Life Technology) and 10 ng/mL IL-3 (R&D system), were infected by EGFR Exon20 virus and subsequently selected by puromycin (Life Technology) selection and IL-3 depletion. Ba/F3 cells expressing EGFR exon 20 insertions (named Ba/F3-EGFR-Exon20-NPG or Ba/F3-EGFR-Exon20-ASV) can proliferate in the absence of IL-3. The anti-proliferative activity of compounds were determined as follows: BaF3-EGFR-Exon20 cells (NPG or ASV) seeded in 96 well plates (2500 cells/well) were treated with test compound (dissolved in DMSO) at a series of concentrations (4-fold dilution, top concentration: 10,000 nM). The plates were incubated for 72 h in a 37° C. incubator with 5% CO2, and the number of viable cells in each well were measured indirectly by CellTiter 96® Aqueous One Solution Cell Proliferation Assay (Promega) This assay is a colorimetric method for determining the number of viable cells through measurement of their metabolic activity by detection of enzymatic conversion of tetrazolium salts into blue formazan derivatives. Reagent (20 pL) was added into each well, and the plates were returned to the incubator for 2 h. The absorbance in each well was then measured at 490 nm using an Envision plate reader (Perkin Elmer). IC50 values were calculated by determining the concentration of compound required to decrease the MTS signal by 50% comparing to the DMSO control in best-fit curves using Microsoft XLfit software or Accelrys Pipeline Pilot.

[2] = biological target: T2, EGFR exon 19 deletion (E746-A750) and T790M mutation (Homo sapiens, UniProt P00533, DEL746-750/T790M); experiment: Ba/F3-EGFR-Del/T790M cell anti-proliferation assay (MTS); conditions: Ba/F3-EGFR-Del/T790M cells, 72 h, MTS signal
T2 construct: expressed in transfected cells; host or cells: Ba/F3 (murine pro-B) cells, lentiviral transduction with pLVX-IRES puro
Excerpt: A compound's ability in selectively inhibiting EGFR exon 19 deletion and T790M concurrent mutations can be assessed using Ba/F3 cells, a murine pro-B cell line, which have been transduced with EGFR exon 19 deletion and T790M mutation. An expression vector, pLVX-IRES puro (Clontech) coding for human EGFR E746-A750 deletion and T790M Mutation, was transfected into HEK293 cells by the Trans-Lentiviral ORF Packaging System (Thermo Scientific), to produce virus encoding EGFR exon 19 deletion and T790M mutations. Ba/F3 (DSMZ) cells maintained in RPM11640 medium supplemented with 10% fetal bovine serum, 200 pM L-glutamine/200 μg/mL penicillin/200 μg/mL streptomycin (Life Technology) and 10 ng/mL IL-3 (R&D system), were infected by EGFR E746-A750 deletion and T790M Mutation virus and subsequently selected by puromycin (Life Technology) selection and IL-3 depletion. Ba/F3 cells expressing EGFR E746-A750 deletion and T790M Mutation (named Ba/F3-EGFR-Del/T790M) can proliferate in the absence of IL-3. The anti-proliferative activity of compounds was determined as follows: BaF3-EGFR-Del/T790M cells seeded in 96 well plates (2500 cells/well) were treated with test compound (dissolved in DMSO) at a series of concentrations (4-fold dilution, top concentration: 10,000 nM). The plates were incubated for 72 h in a 37° C. incubator with 5% CO2, and the number of viable cells in each well were measured indirectly by CellTiter 96® Aqueous One Solution Cell Proliferation Assay (Promega; this assay is a colorimetric method for determining the number of viable cells through measurement of their metabolic activity by detection of enzymatic conversion of tetrazolium salts into blue formazan derivatives). Reagent (20 pL) was added into each well, and the plates were returned to the incubator for 2 h. The absorbance in each well was then measured at 490 nm using an Envision plate reader (Perkin Elmer). IC50 values were calculated by determining the concentration of compound required to decrease the MTS signal by 50% comparing to the DMSO control in best-fit curves using Microsoft XLfit software or Accelrys Pipeline Pilot.

[3] = biological target: T3, EGFR exon 21 L858R and T790M mutation (Homo sapiens, UniProt P00533, L858R/T790M); experiment: Ba/F3-EGFR L858R/T790M cell anti-proliferation assay (MTS); conditions: Ba/F3-EGFR L858R/T790M cells, 72 h, MTS signal
T3 construct: expressed in transfected cells; host or cells: Ba/F3 (murine pro-B) cells, lentiviral transduction with pLVX-IRES puro
Excerpt: A compound's ability in selectively inhibiting EGFR L858R and T790M concurrent mutations can be assessed using Ba/F3 cells, a murine pro-B cell line, which have been transduced with EGFR L858R and T790M double mutations. An expression vector, pLVX-IRES puro (Clontech) coding for human EGFR L858R and T790M double mutation, was transfected into HEK293 cells by the Trans-Lentiviral ORF Packaging System (Thermo Scientific), to produce virus encoding EGFR L858R and T790M double mutations. Ba/F3 (DSMZ) cells maintained in RPM11640 medium supplemented with 10% fetal bovine serum, 200 pM L-glutamine/200 μg/mL penicillin/200 μg/mL streptomycin (Life Technology) and 10 ng/mL IL-3 (R&D system), were infected by EGFR L858R and T790M double mutation virus and subsequently selected by puromycin (Life Technology) selection and IL-3 depletion. Ba/F3 cells expressing EGFR L858R and T790M double mutation (named Ba/F3-EGFR L858R/T790M) can proliferate in the absence of IL-3. The anti-proliferative activity of compounds was determined as follows: BaF3-EGFR L858R/T790M cells seeded in 96 well plates (2500 cells/well) were treated with test compound (dissolved in DMSO) at a series of concentrations (4-fold dilution, top concentration: 10,000 nM). The plates were incubated for 72 h in a 37° C. incubator with 5% CO2, and the number of viable cells in each well were measured indirectly by CellTiter 96® Aqueous One Solution Cell Proliferation Assay (Promega; this assay is a colorimetric method for determining the number of viable cells through measurement of their metabolic activity by detection of enzymatic conversion of tetrazolium salts into blue formazan derivatives). Reagent (20 pL) was added into each well, and the plates were returned to the incubator for 2 h. The absorbance in each well was then measured at 490 nm using an Envision plate reader (Perkin Elmer). IC50 values were calculated by determining the concentration of compound required to decrease the MTS signal by 50% comparing to the DMSO control in best-fit curves using Microsoft XLfit software or Accelrys Pipeline Pilot.

T1 sequence (P00533 with tags, fused parts or gaps INS769ASV): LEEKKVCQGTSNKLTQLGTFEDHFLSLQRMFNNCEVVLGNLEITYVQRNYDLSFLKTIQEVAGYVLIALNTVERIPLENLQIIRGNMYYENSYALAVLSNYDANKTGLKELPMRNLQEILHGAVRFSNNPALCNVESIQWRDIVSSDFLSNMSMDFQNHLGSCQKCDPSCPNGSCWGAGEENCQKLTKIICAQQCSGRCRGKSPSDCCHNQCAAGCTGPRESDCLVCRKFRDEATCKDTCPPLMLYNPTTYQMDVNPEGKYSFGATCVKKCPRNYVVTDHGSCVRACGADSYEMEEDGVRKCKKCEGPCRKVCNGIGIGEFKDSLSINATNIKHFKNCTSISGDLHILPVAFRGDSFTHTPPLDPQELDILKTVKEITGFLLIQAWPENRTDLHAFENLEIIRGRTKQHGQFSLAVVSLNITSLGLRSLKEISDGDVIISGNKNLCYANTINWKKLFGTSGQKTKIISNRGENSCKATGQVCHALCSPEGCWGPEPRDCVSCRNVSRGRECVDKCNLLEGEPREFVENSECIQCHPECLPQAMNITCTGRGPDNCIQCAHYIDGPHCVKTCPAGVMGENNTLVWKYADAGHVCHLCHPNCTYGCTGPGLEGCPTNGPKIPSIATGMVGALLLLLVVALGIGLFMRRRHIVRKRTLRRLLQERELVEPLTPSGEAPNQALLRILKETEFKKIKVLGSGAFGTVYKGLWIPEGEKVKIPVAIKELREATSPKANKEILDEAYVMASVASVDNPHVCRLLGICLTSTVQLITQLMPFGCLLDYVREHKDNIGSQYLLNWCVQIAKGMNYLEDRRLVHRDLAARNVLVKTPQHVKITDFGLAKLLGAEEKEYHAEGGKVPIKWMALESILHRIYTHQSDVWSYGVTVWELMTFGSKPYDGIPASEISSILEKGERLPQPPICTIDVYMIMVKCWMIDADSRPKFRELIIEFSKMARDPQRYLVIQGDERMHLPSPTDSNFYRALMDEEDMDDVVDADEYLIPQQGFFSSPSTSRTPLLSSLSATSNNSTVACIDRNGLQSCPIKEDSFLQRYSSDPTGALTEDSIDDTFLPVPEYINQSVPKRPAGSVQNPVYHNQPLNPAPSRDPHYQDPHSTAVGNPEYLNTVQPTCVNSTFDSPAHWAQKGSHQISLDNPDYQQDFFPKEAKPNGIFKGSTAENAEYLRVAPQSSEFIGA
T3 sequence (P00533 25-1210 T790M/L858R): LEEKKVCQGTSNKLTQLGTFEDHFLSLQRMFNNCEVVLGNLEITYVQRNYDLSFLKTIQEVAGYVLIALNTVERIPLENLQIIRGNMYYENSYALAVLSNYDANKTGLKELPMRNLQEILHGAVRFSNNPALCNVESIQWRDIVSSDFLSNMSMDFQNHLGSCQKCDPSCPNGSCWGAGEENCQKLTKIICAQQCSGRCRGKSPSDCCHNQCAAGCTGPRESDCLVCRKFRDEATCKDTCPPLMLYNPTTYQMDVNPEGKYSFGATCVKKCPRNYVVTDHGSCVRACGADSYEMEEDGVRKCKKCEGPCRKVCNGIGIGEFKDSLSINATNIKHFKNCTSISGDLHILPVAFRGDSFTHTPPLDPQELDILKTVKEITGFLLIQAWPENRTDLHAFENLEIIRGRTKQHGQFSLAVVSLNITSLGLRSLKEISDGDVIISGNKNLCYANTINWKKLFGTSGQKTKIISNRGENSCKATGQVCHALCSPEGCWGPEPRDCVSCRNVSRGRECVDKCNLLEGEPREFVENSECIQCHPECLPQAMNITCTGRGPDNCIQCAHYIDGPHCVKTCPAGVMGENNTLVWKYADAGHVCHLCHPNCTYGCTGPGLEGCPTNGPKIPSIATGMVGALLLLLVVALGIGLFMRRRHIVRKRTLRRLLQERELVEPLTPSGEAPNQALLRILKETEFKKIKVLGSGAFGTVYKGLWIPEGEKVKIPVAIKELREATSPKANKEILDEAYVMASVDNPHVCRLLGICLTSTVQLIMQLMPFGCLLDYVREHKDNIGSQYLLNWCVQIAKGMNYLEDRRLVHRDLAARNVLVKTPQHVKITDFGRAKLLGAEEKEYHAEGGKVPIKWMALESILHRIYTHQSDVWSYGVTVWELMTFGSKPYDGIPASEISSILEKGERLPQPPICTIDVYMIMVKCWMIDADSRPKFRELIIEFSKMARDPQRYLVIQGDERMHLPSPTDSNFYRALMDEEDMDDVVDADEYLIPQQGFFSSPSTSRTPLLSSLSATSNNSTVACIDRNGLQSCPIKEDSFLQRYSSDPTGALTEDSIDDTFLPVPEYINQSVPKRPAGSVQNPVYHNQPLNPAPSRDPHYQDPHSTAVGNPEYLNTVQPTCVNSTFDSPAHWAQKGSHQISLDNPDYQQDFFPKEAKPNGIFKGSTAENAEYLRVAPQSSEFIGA
T2 sequence (P00533 with tags, fused parts or gaps DEL746-750/T790M): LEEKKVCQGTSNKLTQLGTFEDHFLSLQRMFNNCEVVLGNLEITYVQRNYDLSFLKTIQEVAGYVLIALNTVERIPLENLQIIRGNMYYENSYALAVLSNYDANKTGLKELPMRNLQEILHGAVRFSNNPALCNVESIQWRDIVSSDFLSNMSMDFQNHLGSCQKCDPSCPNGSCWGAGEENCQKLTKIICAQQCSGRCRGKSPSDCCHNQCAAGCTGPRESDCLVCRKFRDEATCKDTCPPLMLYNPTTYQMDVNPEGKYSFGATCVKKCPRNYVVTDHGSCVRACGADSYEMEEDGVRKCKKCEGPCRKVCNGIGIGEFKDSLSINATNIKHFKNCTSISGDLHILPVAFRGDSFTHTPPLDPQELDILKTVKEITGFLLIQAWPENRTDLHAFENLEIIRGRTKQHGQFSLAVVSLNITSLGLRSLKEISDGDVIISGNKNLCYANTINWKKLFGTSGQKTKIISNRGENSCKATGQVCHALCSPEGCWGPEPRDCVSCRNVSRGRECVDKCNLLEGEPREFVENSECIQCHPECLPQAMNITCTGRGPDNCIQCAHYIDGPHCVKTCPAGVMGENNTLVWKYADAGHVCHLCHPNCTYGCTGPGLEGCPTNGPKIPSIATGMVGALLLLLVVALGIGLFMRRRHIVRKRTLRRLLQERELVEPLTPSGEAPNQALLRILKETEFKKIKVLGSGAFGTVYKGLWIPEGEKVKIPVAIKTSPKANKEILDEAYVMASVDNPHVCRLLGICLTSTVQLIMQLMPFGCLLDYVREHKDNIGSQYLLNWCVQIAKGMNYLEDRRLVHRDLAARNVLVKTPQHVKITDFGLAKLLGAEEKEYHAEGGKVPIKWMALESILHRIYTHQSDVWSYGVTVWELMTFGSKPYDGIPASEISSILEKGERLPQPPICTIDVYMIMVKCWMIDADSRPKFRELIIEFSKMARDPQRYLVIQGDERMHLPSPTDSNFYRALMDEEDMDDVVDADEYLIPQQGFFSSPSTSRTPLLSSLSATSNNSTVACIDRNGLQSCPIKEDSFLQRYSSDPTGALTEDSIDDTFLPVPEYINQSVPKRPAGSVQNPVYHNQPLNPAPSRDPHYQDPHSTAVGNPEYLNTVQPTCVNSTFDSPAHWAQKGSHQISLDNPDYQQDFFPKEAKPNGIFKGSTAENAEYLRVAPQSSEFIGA

SMILES	IC50 [1]	EGFR exon 19 deletion and T790M mutation IC50 [2]	EGFR exon 21 L858R and T790M mutation IC50 [3]
C=CC(=O)Nc1cc(Nc2nccc(-c3c4n(c5ccccc35)CCOC4)n2)c(OC)cc1N(C)CCN(C)C [Example 1, N-(5-((4-(3,4-dihydro-1H-[1,4]oxazino[4,3-a]indol-10-yl)pyrimidin-2-yl)amino)-2-((2-(dimethylamino)ethyl)(methyl)amino)-4-methoxyphenyl)acrylamide]	< 100 nM	A (Group A compounds have an IC50 value for the indicated mutant below about 100 nM)	A (Group A compounds have an IC50 value for the indicated mutant below about 100 nM)
C=CC(=O)Nc1cc(Nc2nccc(-c3c4n(c5ccccc35)CCN(C)C4=O)n2)c(OC)cc1N(C)CCN(C)C [Example 2, N-(2-((2-(dimethylamino)ethyl)(methyl)amino)-4-methoxy-5-((4-(2-methyl-1-oxo-1,2,3,4-tetrahydropyrazino[1,2-a]indol-10-yl)pyrimidin-2-yl)amino)phenyl)acrylamide]	100 to 500 nM	A (Group A compounds have an IC50 value for the indicated mutant below about 100 nM)	A (Group A compounds have an IC50 value for the indicated mutant below about 100 nM)
C=CC(=O)Nc1cc(Nc2nccc(-c3c4n(c5ccccc35)CC(O)CC4)n2)c(OC)cc1N(C)CCN(C)C (stereo not drawn) [Example 3, N-(2-((2-(dimethylamino)ethyl)(methyl)amino)-5-((4-(7-hydroxy-6,7,8,9-tetrahydropyrido[1,2-a]indol-10-yl)pyrimidin-2-yl)amino)-4-methoxyphenyl)acrylamide]	< 100 nM	A (Group A compounds have an IC50 value for the indicated mutant below about 100 nM)	A (Group A compounds have an IC50 value for the indicated mutant below about 100 nM)
C=CC(=O)Nc1cc(Nc2nccc(-c3c4n(c5ccccc35)CC3OC(C)(C)OC3C4)n2)c(OC)cc1N(C)CCN(C)C (stereo not drawn) [Example 4, N-(5-((4-(cis-2,2-dimethyl-3a,4,11,11a-tetrahydro-[1,3]dioxolo[4′,5′:4,5]pyrido[1,2-a]indol-10-yl)pyrimidin-2-yl)amino)-2-((2-(dimethylamino)ethyl)(methyl)amino)-4-methoxyphenyl)acrylamide]	< 100 nM	A (Group A compounds have an IC50 value for the indicated mutant below about 100 nM)	A (Group A compounds have an IC50 value for the indicated mutant below about 100 nM)
C=CC(=O)Nc1cc(Nc2nccc(-c3c4n(c5ccccc35)CCCC4)n2)c(OC)cc1N(C)CCN(C)C [Example 5, N-(2-((2-(dimethylamino)ethyl)(methyl)amino)-4-methoxy-5-((4-(6,7,8,9-tetrahydropyrido[1,2-a]indol-10-yl)pyrimidin-2-yl)amino)phenyl)acrylamide]	< 100 nM	A (Group A compounds have an IC50 value for the indicated mutant below about 100 nM)	A (Group A compounds have an IC50 value for the indicated mutant below about 100 nM)
C=CC(=O)Nc1cc(Nc2nccc(-c3c4n(c5ccccc35)CC(O)C(O)C4)n2)c(OC)cc1N(C)CCN(C)C (stereo not drawn) [Example 6, N-(5-((4-(cis-7,8-dihydroxy-6,7,8,9-tetrahydropyrido[1,2-a]indol-10-yl)pyrimidin-2-yl)amino)-2-((2-(dimethylamino)ethyl)(methyl)amino)-4-methoxyphenyl)acrylamide]	< 100 nM	A (Group A compounds have an IC50 value for the indicated mutant below about 100 nM)	A (Group A compounds have an IC50 value for the indicated mutant below about 100 nM)
C=CC(=O)Nc1cc(Nc2nccc(-c3c4n(c5ccccc35)CC(OC)CC4)n2)c(OC)cc1N(C)CCN(C)C (stereo not drawn) [Example 7, N-(2-((2-(dimethylamino)ethyl)(methyl)amino)-4-methoxy-5-((4-(7-methoxy-6,7,8,9-tetrahydropyrido[1,2-a]indol-10-yl)pyrimidin-2-yl)amino)phenyl)acrylamide]	< 100 nM	A (Group A compounds have an IC50 value for the indicated mutant below about 100 nM)	A (Group A compounds have an IC50 value for the indicated mutant below about 100 nM)
C=CC(=O)Nc1cc(Nc2nccc(-n3c4c(c5ccccc53)CC(O)CC4)n2)c(OC)cc1N(C)CCN(C)C (stereo not drawn) [Example 10, N-(2-((2-(dimethylamino)ethyl)(methyl)amino)-5-((4-(3-hydroxy-1,2,3,4-tetrahydro-9H-carbazol-9-yl)pyrimidin-2-yl)amino)-4-methoxyphenyl)acrylamide]	< 100 nM	A (Group A compounds have an IC50 value for the indicated mutant below about 100 nM)	A (Group A compounds have an IC50 value for the indicated mutant below about 100 nM)
